Two compounds from patent US12138140B2, “Wound covering for wound monitoring and therapeutic agent delivery” (UVic Industry Partnerships Inc., priority 2017, dated 2024) can be followed below.

Series [1] is described as follows: dehydration test (weight loss over time). Type of series: physicochemical. To be noted: glycerol added to alginate. On the procedure: One of the main advantages of using hydrogels as a substrate for wound dressings is their ability to retain moisture at the wound site. However, hydrogels may be prone to rapid dehydration, which can compromise the integrity of the dressing and ultimately affect its functionality. Rapid dehydration of the hydrogels can pose a challenge for the clinical application of gel-based dressings. The dehydration rate of the dermal patch was evaluated by measuring its weight loss at 37° C. and it was observed that the alginate patch was completely dehydrated in less than 10 hr (FIG. 26A). Influential parameters on dehydration rates including alginate concentration and dressing thickness were altered for these experiments. […]
The effect of Mepitel® on the dehydration rate of the hydrogel dressing was studied. Dressings with 2% w/v alginate were covered by Mepitel® and their weight were measured in 24 hr. […]
Dehydration and hydration tests: Square gel sheets (15 mm×15 mm) made of two different concentrations of alginate (2% and 6% w/v) and two different thicknesses (1.5 mm and 3 mm) were fabricated by crosslinking with agarose sheets containing CaCl2 similar to preparation of the patches. […] The weight was then recorded during definite time intervals for 3 hours and the degree of swelling was then obtained by determining the gained weight for each sample.

Series [2] concerns P. aeruginosa. In words: semi quantitative bacteria inhibition assay of drug-eluting scaffolds on agar plate. The format is cell-based, Pseudomonas aeruginosa. To be noted: 3 mg/ml dosage. On the procedure: To examine the antibacterial effectiveness of the drug-eluting scaffolds, a semi quantitative bacteria inhibition assay was performed using P. aeruginosa. […] Scaffolds with no drugs and filter paper impregnated with the same amount of drugs were used as negative and positive controls, respectively. Gentamicin is widely used as an effective antibiotic agent against a wide range of Gram-negative and Gram-positive bacteria, including P. aeruginosa (25-27). […] The observed white ring around the scaffold within the inhibited zone was suspected to be infected by the bacteria. Therefore, we collected swab samples from three different zones near the scaffold (point 1), in the white region (point 2), and at the edge of the ring (point 3), then plated the samples overnight on another agar plate. […] The formation of the white ring around the scaffold can be attributed to the interaction of the phosphate ions in the agar and calcium ions that were releasing from the calcium alginate scaffolds.
Bacteria viability loss assay: Drug-eluting scaffolds were embedded in alginate patches as described previously; patches were then placed on top of a Tryptic soy agar (TSA, Sigma-Aldrich) plate on which Pseudomonas aeruginosa bacteria were spread and the effect of the antimicrobial was investigated after incubation at 37° C. for 18 hr.

Series [3] is described as follows: antibacterial efficiency of UV-sterilized gentamicin versus drug not treated with UV. The format is cell-based. The settings on record: UV 365 nm, 200 mW/cm^2. An excerpt:
In a representative example, multifunctional dressings were made according to the embodiments described herein comprising an array of porous color-changing pH sensors (e.g., the sensing elements 14) and drug-eluting scaffolds (e.g., the therapeutic agent delivery elements 16), which were embedded within an alginate dressing (FIG. 16A). The array of porous sensors (each sensor was 12×12 mm in size) comprised three-dimensionally (3D)-printed color-changing alginate fibers that were loaded with mesoporous resin beads doped with a pH-responsive dye (FIGS. 16A-16G). Alginate is a naturally-derived polysaccharide that can be used as a dressing material for epidermal applications due to its biocompatibility, hemostatic properties, and non-adhesive characteristics that facilitate the removal of the dressing without trauma and pain (14-18). With reference to FIG. 6A and FIGS. 16B and 16C, to print the sensors, a microextruder 60 comprising two coaxial needles 62 and 64 (FIG. 16C and FIGS. 22A-22B) mounted on a 3D printer (e.g., a Prusa i3) was used. The porosity of the sensors was adjusted by changing the diameter of the fibers while keeping the spacing between fibers constant. Encapsulation of the beads within the hydrogel fibers prevented the beads from dispersing in the wound area while providing a biocompatible interface with the wound site. […]

Regarding `OCC(O)CO` [glycerol], the “reduction of dehydration rate” value in series [1] turned out to be 30%.

For gentamicin sulfate, the “effectiveness of topical delivery in the in vitro inhibition assay” value in series [2] is on record as “demonstrated the effectiveness”. For the same compound, the “impact of UV exposure on antibacterial efficiency of the drug” value in series [3] was “no impact”.
